{
  "source": "paper PMC4810412",
  "about": "“Identification of a Fragment-Based Scaffold that Inhibits the Glycosyltransferase WaaG from Escherichia coli” (Antibiotics, 2016)",
  "target": "WaaG (α-1,3-glucosyltransferase I) (Escherichia coli, UniProt P25740)",
  "sequence (P25740 whole entry, the tested form may be a part)": "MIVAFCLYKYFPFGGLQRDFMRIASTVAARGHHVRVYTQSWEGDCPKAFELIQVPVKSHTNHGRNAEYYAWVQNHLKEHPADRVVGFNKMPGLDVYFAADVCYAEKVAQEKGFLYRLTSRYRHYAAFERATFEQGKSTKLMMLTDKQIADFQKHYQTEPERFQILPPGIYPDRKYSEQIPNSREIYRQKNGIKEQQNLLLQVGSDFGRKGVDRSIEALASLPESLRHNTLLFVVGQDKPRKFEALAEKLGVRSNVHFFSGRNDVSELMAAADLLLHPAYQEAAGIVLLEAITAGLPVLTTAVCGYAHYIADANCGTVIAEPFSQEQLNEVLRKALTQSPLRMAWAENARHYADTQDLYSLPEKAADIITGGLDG",
  "assay": "[…]-glucose transfer from UDP-Glc to truncated LPS, SDS-PAGE autoradiography, dose-response",
  "format": "biochemical",
  "data": [
    {"smiles": "Nc1nc(-c2ccc(O)cc2)cs1", "note": "[L1, 4-(2-amino-1,3-thiazol-4-yl)phenol]", "values": [
      {"measurement": "IC50", "result": 1000, "unit": "µM"}
    ]}
  ]
}
